Reference: article PMC5380659, “Unique charge-dependent constraint on collagen recognition by integrin α10β1” (Matrix Biology, 2017)
Entries after “also recorded” stand apart in the source; their conditions may differ.

Assays:
C2C12-α10β1 cells [1] = experiment: LDH-based SPBA of C2C12-α10β1 cell adhesion; set-up: species or system mouse; conditions: short THPs, 2 mM Mg^2 +, 1 h, Fig. 4B
Protocol: The mouse myoblast cell line, C2C12-α10β1 clone, expresses α10β1 as its sole collagen-binding integrin [16]. To investigate the binding of α10β1 to collagen in a cellular and whole integrin context, therefore, the adhesion of C2C12-α10β1 cells to Toolkits II and III was performed using two different approaches. First, SPBA was used, with lactate dehydrogenase to report the presence of adherent cells, after lysis, as described in Experimental. […] C2C12-α10B1 cells generally bound more prominently to those weaker peptides that supported just-observable binding of free I-domain. This may reflect avidity of the receptor-populated cell surface for the peptide-coated wells, or perhaps up-regulation of integrin affinity following receptor engagement. It is also possible that some cell binding reflects specific indirect interactions. For example, fibronectin, available either by intrinsic expression or from the serum supplement, binds well to II-44, and can also bind integrin αVβ3 [21].
Fig. 2 Binding of α10β1-transfected C2C12 cells to Collagen Toolkits. 96-well plates were coated with peptides as for Fig. 1, then C2C12-α10β1 cells (5 × 10^4 per well) were added and incubated for 1 h in the presence of either 2 mM MgCl2 or 2 mM EDTA as above. A: binding to Toolkit II. B: binding to Toolkit III.
(§1) The mouse myoblast cell line, C2C12, (control and transfectants, C2C12-α1β1, C2C12-α2β1, C2C12-α10β1 or C2C12-α11β1) was maintained in RPMI medium containing 10% fetal bovine serum, 2 mM glutamine, 100 IU/ml penicillin, 100 μg/ml streptomycin, and 2.5 μg/ml amphotericin. Cells were harvested by centrifugation, washed, and suspended at 0.5 × 10^6/ml in Tris-buffered saline supplemented with 5.5 mM glucose and either 2 mM EDTA or 2 mM MgCl2. SPBA was performed as follows: 100 μl of the cell suspension was added to peptide-coated wells [42] at 20 °C for 60 min. Cell adhesion was determined colorimetrically after lysis, using a lactate dehydrogenase (LDH)-based cell detection kit (Roche Diagnostics) according to the supplier's instructions.

[2] = tested on: human recombinant GST-α10 I domain; experiment: Solid-phase binding assay (SPBA) of wild-type α10 I domain; conditions: short THPs, 2 mM Mg^2 +, 1 h, Fig. 4A
Protocol: The α10 I domain was applied to the collagen II and III Toolkits in the presence or absence of Mg^2 +, and was detected using anti-GST, as described in Experimental: data are shown in Fig. 1. The background response is indicated by wells coated with the control peptide, GPP10 (corresponding to the host sequence), or BSA.
(§2) I domain adhesion was determined colorimetrically, as described, here termed solid phase binding assay (SPBA). Peptides were coated at 10 μg/ml for 1 h at 22 °C on Immulon-2 HB 96-well plates (Thermo Life Sciences, Basingstoke, UK), and blocked for 1 h with 200 μl of TBS containing 50 mg/ml bovine serum albumin. Wells were washed four times with 200 μl of the adhesion buffer (TBS with 1 mg/ml bovine serum albumin) before adding 100 μl of adhesion buffer containing 10 μg/ml of recombinant GST I domains in the presence of either 2 mM MgCl2 or EDTA for 1 h at room temperature. Wells were washed five times with 200 μl of adhesion buffer containing MgCl2 or EDTA, before adding 100 μl of adhesion buffer containing the anti-GST-HRP conjugate at 1:10,000 dilution for 1 h at room temperature. After washing, colour was developed using an ImmunoPure TMB Substrate Kit (Pierce) according to the manufacturer's instructions.

α10β1 [3] = experiment: Overall recognition by α10β1 (I domain and C2C12-α10β1 cells, summary); conditions: abstract and discussion; I domain and/or C2C12-α10β1 cells
Protocol: as §2, §1
(§3) To quantitate C2C12-α10β1 binding to collagen peptides, we used the impedance-based xCELLigence system (Acea) that allows label-free, dynamic monitoring of cell adhesion in real-time. The assay system expresses the adhesion-dependent rise in well impedance in units of cell index (CI), defined as (Rn − Rb) / 15; where Rn is the electrical impedance of each cell-containing well and Rb is the background impedance of the well with medium alone

[4] = tested on: collagen-binding integrins; set-up: method as in 3 sources, ref [7], [8] = [7]; PMID 10778855; doi:10.1016/S0092-8674(00)80622-4; 7 Emsley J. Knight C.G. Farndale R.W. Barnes M.J. Liddington R.C. Structural basis of collagen recognition by integrin alpha2beta1 Cell 101 1 2000 47 56 10778855 10.1016/S0092-8674(00)80622-4 || [8]; PMID 16326707; doi:10.1074/jbc.M509818200; 8 Raynal N. Hamaia S.W. Siljander P.R. Maddox B. Peachey A.R. Fernandez R. Foley L.J. Slatter D.A. Jarvis G.E. Farndale R.W. Use of synthetic peptides to locate novel integrin alpha2beta1-binding moti ||| ref [8], [10] = [8]; PMID 16326707; doi:10.1074/jbc.M509818200; 8 Raynal N. Hamaia S.W. Siljander P.R. Maddox B. Peachey A.R. Fernandez R. Foley L.J. Slatter D.A. Jarvis G.E. Farndale R.W. Use of synthetic peptides to locate novel integrin alpha2beta1-binding moti || [10]; PMID 16043429; doi:10.1074/jbc.M502431200; 10 Kim J.K. Xu Y. Xu X. Keene D.R. Gurusiddappa S. Liang X. Wary K.K. Hook M. A novel binding site in collagen type III for the integrins, alpha 1beta 1 and alpha 2beta 1 J. Biol. Chem. 280 2005 32512 ||| ref [11] = [11]; PMID 10986291; doi:10.1074/jbc.M007668200; 11 Xu Y. Gurusiddappa S. Rich R.L. Owens R.T. Keene D.R. Mayne R. Hook A. Hook M. Multiple binding sites in collagen type I for the integrins α1β1 and α2β1 J. Biol. Chem. 275 2000 38981 38989 10986291; conditions: ref [11]; cited from earlier work
From the text: Many related motifs have now been identified using the Collagen Toolkits developed in this laboratory for the purpose. These are libraries of overlapping peptides of 27 amino acids of collagen primary sequence (guest sequence), flanked ...

C2C12-α10β1 cells [5] = experiment: xCELLigence real-time adhesion of C2C12-α10β1 cells; assay type: cell-based, mouse; conditions: 2.5 × 10^4 cells/well, 2 mM Mg^2 +, over 1 h, Fig. 3A
Protocol: Fig. 3 Binding of α10β1-transfected C2C12 cells to collagens and selected Toolkit peptides. Peptides or collagens were coated on ePlates as described, then cells were added in the presence of 2 mM Mg^2 + or EDTA, and Cell Index value was collected over 1 h. […] B: time courses are shown of adhesion to selected Toolkit peptides or GPP-10.
as §3
Briefly, C2C12 cells were seeded at 2.5 × 10^4 cells/well in an E-plate (Roche Applied Science) pre-coated with peptides as for SPBA, and CI was measured for up to 2 h.

α10β1 [6] = tested on: α10β1; set-up: method as in not given; conditions: ref not given; cited from earlier work
From the text: In the setting of cartilage, collagen III, although enriched in the pericellular environment, is much less abundant than collagen II [22], and its expression increases with age or with th ...

integrin α1β1 = tested on: integrin α1β1; set-up: method as in 3 sources, ref [4]; PMID 19693543; doi:10.1007/s00441-009-0834-6; 4 Barczyk M. Carracedo S. Gullberg D. Integrins Cell Tissue Res. 339 1 2010 269 280 19693543 10.1007/s00441-009-0834-6 PMC2784866 ||| ref [12] = [12]; PMID 22654115; doi:10.1074/jbc.M112.353144; 12 Hamaia S.W. Pugh N. Raynal N. Nemoz B. Stone R. Gullberg D. Bihan D. Farndale R.W. Mapping of potent and specific binding motifs, GLOGEN and GVOGEA, for integrin alpha1beta1 using collagen toolkits ||| ref not given; conditions: ref [4]; cited from earlier work
From the text: The collagen-binding integrin family is complete, with four established members, α1β1, α2β1, α10β1 and α11β1. These are highly-conserved, heterodimeric receptors with an important structural feature in common, the presence of an I (inserted) domain which contains the metal ion-dependent adhesion site (MIDAS). The MIDAS is a constellation of electronegative residues at the distal surface of this 200-residue domain that, in the resting, non-ligated state, can co-ordinate a Mg^2 + ion. […] Many related motifs have now been identified using the Collagen Toolkits developed in this laboratory for the purpose. These are libraries of overlapping peptides of 27 amino acids of collagen primary sequence (guest sequence), flanked ... || Why would collagen II differ in this respect?

Row | Substance | Adhesion of C2C12-α10β1 cells to short triple-helical peptides (C2C12-α10β1 cells [1]) | Binding of α10 I domain to short triple-helical peptides [2] | Recognition by α10β1, summary (α10β1 [3]) | Ligand of collagen-binding integrins, weak motifs [4] | Cell adhesion to collagens (Cell Index, endpoint) (C2C12-α10β1 cells [5]) | Reported binding of α10β1 to collagens (α10β1 [6]) | Preferred ligand of α1β1 (integrin α1β1)
1 | GLOGER [short triple-helical peptide containing GLOGER] | bound strongly | less well | binds α10β1 better than GFOGER, second only to GLOGEN; also recorded: α10β1-positive | – | – | – | –
2 | GLSGER [short triple-helical peptide containing GLSGER] | bound strongly | – | α10β1-positive | weak ligands | – | – | –
3 | collagen II: intact collagen II | – | – | – | – | bound quite well | binds | –
4 | collagen IV: intact collagen IV | – | – | – | – | better | better ligand | preferred ligand
